The numbers were not newly measured in US20040115234A1, “Cosmetic composition” (priority 2002, published 2004), which cites them from elsewhere.

Each structure is given as a SMILES string.

The test system of one data set is eyelashes. To be noted: Latanoprost at 0.005% by weight; clinical studies over up to 12 months; % of the subjects tested.

Consider `CC(C)OC(=O)CCC/C=C\C[C@@H]1[C@@H](CC[C@@H](O)CCc2ccccc2)[C@H](O)C[C@@H]1O` [Latanoprost, isopropyl-(Z)-7[(1R, 2R, 3R, 5S)3,5-dihydroxy-2-[(3R)-3-hydroxy-5-phenylpentyl]cyclopentyl]-5-heptenoate], for which the solubility in water entry is listed as “limited solubility in water”. Besides, in the data set on eyelashes, the “subjects with induced change in color of eyelashes” value is 16.5%, the “subjects with induced change in density of eyelashes” value is on record as 22.2%, the “subjects with induced change in length of eyelashes” value is 25.8% and the “subjects with induced change in thickness of eyelashes” value is recorded as 17.5%.
